Measurements as given in paper PMC2213567 (The Journal of General Physiology, 2008).

Biological target: α4β2δ GABAAR (Mus musculus (alpha4); Rattus norvegicus (beta2); Homo sapiens (delta), UniProt P63138+Q9D6F4)
Test: ultrafast agonist application, outside-out macropatch
Format: cell-based

Chain of α4β2δ GABAAR (Q9D6F4 36-552): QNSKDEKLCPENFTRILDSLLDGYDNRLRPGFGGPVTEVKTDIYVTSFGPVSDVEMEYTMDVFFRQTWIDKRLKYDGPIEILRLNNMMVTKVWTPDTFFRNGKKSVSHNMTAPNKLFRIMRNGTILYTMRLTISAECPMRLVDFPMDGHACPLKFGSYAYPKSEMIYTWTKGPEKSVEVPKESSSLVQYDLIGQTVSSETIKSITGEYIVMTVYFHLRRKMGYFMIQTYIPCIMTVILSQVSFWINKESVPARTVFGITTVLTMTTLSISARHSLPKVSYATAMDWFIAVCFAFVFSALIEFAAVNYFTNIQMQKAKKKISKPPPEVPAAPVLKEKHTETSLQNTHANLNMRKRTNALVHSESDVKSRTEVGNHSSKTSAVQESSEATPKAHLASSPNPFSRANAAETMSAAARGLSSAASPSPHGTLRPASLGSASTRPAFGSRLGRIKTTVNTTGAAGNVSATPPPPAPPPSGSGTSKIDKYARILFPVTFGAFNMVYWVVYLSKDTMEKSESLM
Chain of α4β2δ GABAAR (P63138 26-474): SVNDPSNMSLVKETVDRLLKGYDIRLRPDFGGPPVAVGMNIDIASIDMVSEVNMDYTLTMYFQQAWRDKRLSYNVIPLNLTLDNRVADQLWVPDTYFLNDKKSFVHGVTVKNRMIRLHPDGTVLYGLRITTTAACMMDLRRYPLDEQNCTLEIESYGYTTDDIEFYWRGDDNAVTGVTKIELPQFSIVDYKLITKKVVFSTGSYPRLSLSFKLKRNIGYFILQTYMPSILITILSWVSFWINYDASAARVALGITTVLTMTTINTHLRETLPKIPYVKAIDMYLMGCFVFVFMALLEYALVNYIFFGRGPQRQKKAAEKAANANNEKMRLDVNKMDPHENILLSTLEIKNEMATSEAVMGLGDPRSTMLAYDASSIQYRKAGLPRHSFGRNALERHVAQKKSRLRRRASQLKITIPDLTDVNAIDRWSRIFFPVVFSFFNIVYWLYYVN
Chain of α4β2δ GABAAR (O14764 25-452 partner): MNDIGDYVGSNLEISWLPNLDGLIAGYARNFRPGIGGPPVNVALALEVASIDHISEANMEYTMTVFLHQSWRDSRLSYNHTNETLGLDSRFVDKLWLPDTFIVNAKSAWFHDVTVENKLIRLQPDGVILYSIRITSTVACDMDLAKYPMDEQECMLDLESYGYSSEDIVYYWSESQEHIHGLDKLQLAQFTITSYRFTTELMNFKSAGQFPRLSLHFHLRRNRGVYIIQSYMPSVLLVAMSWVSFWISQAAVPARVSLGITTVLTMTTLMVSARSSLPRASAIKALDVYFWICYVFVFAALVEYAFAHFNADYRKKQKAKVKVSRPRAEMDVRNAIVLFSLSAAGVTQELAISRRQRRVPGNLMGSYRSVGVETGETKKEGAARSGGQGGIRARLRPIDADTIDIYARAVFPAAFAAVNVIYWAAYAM

Question: `Oc1noc2c1CCNC2` [THIP, 4,5,6,7-tetrahydroisoxazolo[5,4-c]pyridin-3(2H)-one] was tested. Which Kd did it give?
Answer: Its Kd is 683 µM.
